Experimental findings from ChEMBL document CHEMBL1149293, “Identification of 7-phenylaminothieno- [3,2-b]pyridine-6-carbonitriles as a new class of Src kinase inhibitors” (J Med Chem, 2004) are described below.

Some results are limits rather than exact numbers.

This test deals with Proto-oncogene tyrosine-protein kinase Src (Homo sapiens, UniProt P12931). Nature of the test: Inhibition of Src kinase.
Proto-oncogene tyrosine-protein kinase Src, sequence (P12931 2-536 limits assumed): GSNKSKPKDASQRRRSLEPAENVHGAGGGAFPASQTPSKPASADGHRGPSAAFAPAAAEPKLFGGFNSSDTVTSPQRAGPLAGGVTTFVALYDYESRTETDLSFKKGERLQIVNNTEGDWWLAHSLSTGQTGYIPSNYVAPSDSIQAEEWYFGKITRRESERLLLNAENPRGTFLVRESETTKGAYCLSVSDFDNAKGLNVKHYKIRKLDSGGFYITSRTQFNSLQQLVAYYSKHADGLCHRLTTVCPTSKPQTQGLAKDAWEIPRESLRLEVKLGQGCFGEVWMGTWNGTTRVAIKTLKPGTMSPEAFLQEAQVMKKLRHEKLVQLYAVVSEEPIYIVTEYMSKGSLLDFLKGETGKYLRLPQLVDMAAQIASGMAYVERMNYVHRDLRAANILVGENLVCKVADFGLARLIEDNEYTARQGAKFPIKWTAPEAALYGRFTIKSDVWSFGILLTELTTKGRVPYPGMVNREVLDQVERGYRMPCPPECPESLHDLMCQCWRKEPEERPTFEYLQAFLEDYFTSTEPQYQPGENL

Take `COc1cc(Nc2c(C#N)cnc3c(-c4ccc(CN5CCOCC5)cc4)csc23)c(Cl)cc1Cl`: the IC50 (commonly the concentration needed to halve the response being measured) was above 10 µM.

Compound `COc1cc(Nc2c(C#N)cnc3cc(-c4ccccc4N4CCN(C)CC4)sc23)c(Cl)cc1Cl` displayed an IC50 above 10 µM.
